Molecules are shown by their SMILES. Counter-ions that a name gives are not always drawn. Where only a bound is given, the exact number is not on record here.

For one test, the target named is Steroidogenic factor 1 (Homo sapiens, UniProt Q13285). In words: blockers of SF-1 LBD reporter transcription – cell-based, CHO-K1, Gal4-SF-1 LBD, luciferase luminescence, dose response (AID 600).
Sequence of Steroidogenic factor 1 (Q13285 whole entry, the tested form may be a part): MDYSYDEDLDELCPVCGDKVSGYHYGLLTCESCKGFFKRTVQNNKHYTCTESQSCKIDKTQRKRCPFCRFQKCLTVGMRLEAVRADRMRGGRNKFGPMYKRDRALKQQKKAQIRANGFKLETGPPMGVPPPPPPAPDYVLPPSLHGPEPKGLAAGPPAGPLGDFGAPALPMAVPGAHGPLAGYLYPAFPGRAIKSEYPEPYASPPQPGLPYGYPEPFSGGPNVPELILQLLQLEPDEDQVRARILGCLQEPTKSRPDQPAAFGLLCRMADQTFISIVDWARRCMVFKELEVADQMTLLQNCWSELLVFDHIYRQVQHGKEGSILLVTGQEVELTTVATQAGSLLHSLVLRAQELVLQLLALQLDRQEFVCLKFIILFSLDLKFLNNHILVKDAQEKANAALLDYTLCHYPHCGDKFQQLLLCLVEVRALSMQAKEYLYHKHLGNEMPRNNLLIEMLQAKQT
Conditions: not given
Molecule `CCOc1cc(C(=O)CSc2nnc(CNc3ccc(Cl)cc3)o2)ccc1NC(=O)CC` [MLS000032332] yielded an IC50 of 8.36 µM. For the molecule `COc1cccc2c1C(=O)c1c(O)c3c(c(O)c1C2=O)C[C@@](O)(C(C)=O)C[C@@H]3O[C@H]1C[C@H](N)[C@H](O)[C@H](C)O1` [(7S,9S)-9-acetyl-7-[(2R,4S,5S,6S)-4-amino-5-hydroxy-6-methyloxan-2-yl]oxy-6,9,11-trihydroxy-4-methoxy-8,10-dihydro-7H-tetracene-5,12-dione;hydrochloride], the IC50 came to 0.54 µM.

Consider `COc1ccc(CCNc2ncnc3c2oc2ccccc23)cc1OC` [MLS000041708], for which the IC50 came out at 9.38 µM. The same measure, in the same setting: the value for `COc1cc2nc(S)n3nc(CCn4nc(C)cc4C)nc3c2cc1OC` was 5.04 µM; that for `CS(=O)(=O)c1nc(-c2ccccc2)cc(C(F)(F)F)n1` [MLS000044644] was 5.09 µM. Still for that read-out and setting: the result for `c1ccc(N=C2N=C(Nc3ccccn3)c3ccccc32)nc1` [N-pyridin-2-yl-3-pyridin-2-yliminoisoindol-1-amine] reads 2.24 µM. Same read-out and setting: the result for `COc1ccc(C(=O)Nn2c(SCC(=O)NCC3CCCO3)nc3ccccc3c2=O)cc1` (configuration not stated) [4-methoxy-N-[4-oxidanylidene-2-[2-oxidanylidene-2-(oxolan-2-ylmethylamino)ethyl]sulfanyl-quinazolin-3-yl]benzamide] reads 4.29 µM; that for `CCOC(=O)C(C)Oc1cccc2c(=O)n(CC(=O)Nc3ccc4c(c3)OCCO4)ccc12` (configuration not stated), 0.837 µM.

Turning to `Cc1cc(C)n(-c2ccc3cccc(NS(C)(=O)=O)c3n2)n1` [MLS000062301], the IC50 was found to be 3.42 µM. On the same count and under the same terms, the result for `COc1ccc(/N=c2\scc(-c3ccc(S(=O)(=O)N4CCOCC4)cc3)n2CCCO)cc1` [3-[(2Z)-2-[(4-methoxyphenyl)imino]-4-[4-(morpholin-4-ylsulfonyl)phenyl]-1,3-thiazol-3(2H)-yl]propan-1-ol] reads 21.9 µM. For `C[C@@]1(CO)[C@H](O)CC[C@@]2(C)[C@H]1CC[C@H]1C[C@@H]3C[C@@]12CC[C@]3(O)CO` [6,13-di(hydroxymethyl)-2,6-dimethyl-(1S,2S,5R,6R,7R,10S,12R,13R)-tetracyclo[10.3.1.01,10.02,7]hexadecane-5,13-diol (Aphidicolin)], the half-maximal inhibitory concentration (IC50) came to 0.55 µM. Same read-out and setting: the result for `Nc1nonc1C(=O)NCCNCc1cc(Br)ccc1OCc1ccc(F)cc1` [4-amino-N-[2-[[5-bromo-2-(4-fluorobenzyl)oxy-benzyl]amino]ethyl]furazan-3-carboxamide;hydrochloride] reads 4.46 µM; that for `CCOC(=O)c1cnc(-n2nc(C)cc2C)nc1NC1CCCCC1` [4-(cyclohexylamino)-2-(3,5-dimethyl-1-pyrazolyl)-5-pyrimidinecarboxylic acid ethyl ester], 5.67 µM. Still for that read-out and setting: the result for `COc1ccc(-c2nc(-c3ccccc3)no2)c(OC)c1` [5-(2,4-dimethoxyphenyl)-3-phenyl-1,2,4-oxadiazole] reads 3.52 µM; that for `CCN(CC)c1ccc2cc(NC(=O)CCC(=O)O)c(=O)oc2c1` [4-[[7-(diethylamino)-2-keto-chromen-3-yl]amino]-4-keto-butyric acid], 5.11 µM.

For the molecule `O=c1c2ccccc2cnn1-c1nc2ccccc2s1` [2-(1,3-benzothiazol-2-yl)-1-phthalazinone], it took 2.12 µM to reach half-maximal inhibition (IC50). Same read-out and setting: the value for `Cc1ccc(-c2nc(-c3ccccn3)no2)cc1Cl` [5-(3-chloranyl-4-methyl-phenyl)-3-pyridin-2-yl-1,2,4-oxadiazole] was more than 1.22 µM; that for `COc1ccc(C=Nn2nnc3ccccc32)cc1` [MLS000043825] was more than 3.67 µM; that for `c1c2c(cc3sc(N4CCCCC4)nc13)OCCO2` [2-(1-piperidinyl)-6,7-dihydro-[1,4]dioxino[2,3-f][1,3]benzothiazole] was 3.91 µM. The same measure, in the same setting: the value for `COc1cc([C@@H]2c3cc4c(cc3[C@H](O)[C@H]3COC(=O)[C@H]23)OCO4)cc(OC)c1OC` [podophyllotoxin] was 0.0454 µM; that for `Cc1ccc(-c2nnc(Nc3ccccc3)o2)cc1` [5-(4-methylphenyl)-N-phenyl-1,3,4-oxadiazol-2-amine] was 5.17 µM; that for `COc1ccccc1-c1nnc(Nc2nc3c(OC)cccc3s2)o1` [(4-methoxy-1,3-benzothiazol-2-yl)-[5-(2-methoxyphenyl)-1,3,4-oxadiazol-2-yl]amine] was 6.52 µM. On the same count and under the same terms, the value for `CC[C@]1(O)CC2C[N@](CCc3c([nH]c4ccccc34)[C@@](C(=O)OC)(c3cc4c(cc3OC)N(C)[C@H]3[C@@](O)(C(=O)OC)[C@H](OC(C)=O)[C@]5(CC)C=CCN6CC[C@]43[C@@H]65)C2)C1` [(vinblastine) methyl 12-ethyl-4-[17-ethyl-17-hydroxy-13-methyloxycarbonyl-(13S,15R,17S)-1,11-diazatetracyclo[13.3.1.04,12.05,10]nonadeca-4(12),5,7,9-tetraen-13-yl]-10-hydroxy-5-methoxy-8-methyl-11-methylcarbonyloxy-(10S,11R,12R)-8,16-diazapentac sulfuric acid] was 0.986 µM; that for `COc1ccc2[nH]c3nc(SC(C)C)nnc3c2c1` [8-methoxy-3-propan-2-ylsulfanyl-5H-[1,2,4]triazino[5,6-b]indole] was 9.03 µM. As for `CSC1=NC2=C(C(=O)CC(C)(C)C2)C(c2ccc(Cl)cc2)C1C#N` (configuration not stated) [SMR000102109], the IC50 was 21.3 µM. `Cc1ccc(CNc2nc3ccccc3s2)s1` [1,3-benzothiazol-2-yl-[(5-methyl-2-thienyl)methyl]amine] displayed a 50% inhibitory concentration (IC50) of more than 11 µM. Still for that read-out and setting: the value for `CCn1c(C)nc2cc(-c3nc4n(n3)Cc3ccccc3-4)ccc21` [2-(1-ethyl-2-methyl-5-benzimidazolyl)-5H-[1,2,4]triazolo[5,1-a]isoindole] was less than 0.00503 µM; that for `O=C(NCCOc1ccccc1)c1ccc2c(c1)OCO2` [MLS000100028] was more than 1.22 µM. Same read-out and setting: the value for `CC1(C)COCN1S(=O)(=O)c1ccc(C(=O)Nc2nnc(-c3ccc(Cl)s3)o2)cc1` [MLS000086346] was 7.61 µM; that for `c1ccc(-n2nnc3c(N4CCOCC4)ncnc32)cc1` [4-(3-phenyl-7-triazolo[4,5-d]pyrimidinyl)morpholine] was more than 99 µM; that for `CCCc1ccc(-c2ccc(F)c(N)c2)nc1` [2-fluoranyl-5-(5-propylpyridin-2-yl)aniline] was 7.35 µM. The same measure, in the same setting: the result for `COc1ccc(-c2noc(CCCC(=O)O)n2)cc1` [4-[3-(4-methoxyphenyl)-1,2,4-oxadiazol-5-yl]butanoic acid] reads 0.625 µM; that for `Nc1ccc(-c2nc3c(Cl)cc(N)cc3[nH]2)cc1` [MLS000034140], 5.09 µM.

Consider `CCCCn1c2c(c(=O)n(C)c1=O)C(c1ccc(OC)cc1)N1CCCCCC1=N2` (configuration not stated) [1-butyl-5-(4-methoxyphenyl)-3-methyl-5,7,8,9,10,11-hexahydropyrimido[3,4]pyrimid[4,5-a]azepine-2,4-quinone], for which 8.03 µM corresponded to half-maximal inhibition (IC50).

On to `c1ccc(-n2ncc3c(N4CCCCC4)ncnc32)cc1` [1-phenyl-4-(1-piperidinyl)pyrazolo[3,4-d]pyrimidine], for which the IC50 is 5.86 µM. Still for that read-out and setting: the value for `O=NC1c2cc(S(=O)(=O)N3CCCCC3)ccc2-c2ccc(S(=O)(=O)N3CCCCC3)cc21` [2,7-Bis-(piperidine-1-sulfonyl)-fluoren-9-one oxime] was 1.51 µM; that for `O=C(O)c1cccc(COc2ccc(CO)cc2Cl)c1` [3-[(2-chloro-4-methylol-phenoxy)methyl]benzoic acid] was 0.547 µM; that for `Cc1ccc(-c2nsc3c(N4CCC(C(N)=O)CC4)ncnc23)cc1` [1-(3-p-Tolyl-isothiazolo[4,5-d]pyrimidin-7-yl)-piperidine-4-carboxylic acid amide] was 0.221 µM. On the same count and under the same terms, the result for `O=C(Nc1nc(-c2ccccn2)cs1)c1ccc(S(=O)(=O)N2CCCCC2)cc1` [4-(1-piperidinylsulfonyl)-N-[4-(2-pyridinyl)-2-thiazolyl]benzamide] reads 9.93 µM; that for `CCc1ccc2oc(-c3ccc(N)cc3)nc2c1` [4-(5-ethyl-1,3-benzoxazol-2-yl)aniline], more than 3.67 µM; that for `COc1cc(C2C3=C(N=C(C)C2C#N)c2ccccc2C3=O)cc(OC)c1OC` (configuration not stated) [2-methyl-5-oxidanylidene-4-(3,4,5-trimethoxyphenyl)-1,4-dihydroindeno[1,2-b]pyridine-3-carbonitrile], more than 1.22 µM. Same read-out and setting: the result for `Cc1cnc(NC(=O)COc2ccccc2Cl)s1` [2-(2-chloranylphenoxy)-N-(5-methyl-1,3-thiazol-2-yl)ethanamide] reads more than 1.22 µM.

Still in this test, the particulars now being: inactive by the depositor's call.
In turn, `COc1ccc(CCNc2nc(C)nc3c2oc2ccccc23)cc1OC` [MLS000040997] gave a half-maximal inhibitory concentration (IC50) of 10.1 µM. `Cc1csc(NC(=O)Cc2nn(C)c(=O)c3ccccc23)n1` [2-(3-methyl-4-oxidanylidene-phthalazin-1-yl)-N-(4-methyl-1,3-thiazol-2-yl)ethanamide]: the half-inhibitory concentration (IC50) came out at 34.3 µM. In turn, `CN1/C(=C/C(=O)c2nc(S(C)(=O)=O)ncc2Cl)C(C)(C)c2ccccc21` displayed a 50% inhibitory concentration (IC50) of 15.5 µM. Still for that read-out and setting: the result for `COc1ccc(-c2nnc(NC(=O)c3ccc(S(=O)(=O)N4COCC4(C)C)cc3)o2)cc1` [4-(4,4-dimethyloxazolidin-3-yl)sulfonyl-N-[5-(4-methoxyphenyl)-1,3,4-oxadiazol-2-yl]benzamide] reads 13.5 µM; that for `COc1ccc(-c2cc(C(=O)O)c(C)o2)cc1OC` [5-(3,4-dimethoxyphenyl)-2-methyl-3-furancarboxylic acid], 10.8 µM; that for `CC1CCCCN1S(=O)(=O)c1ccc(C(=O)Nc2nnc(-c3cccs3)o2)cc1` (configuration not stated) [4-(2-methylpiperidin-1-yl)sulfonyl-N-(5-thiophen-2-yl-1,3,4-oxadiazol-2-yl)benzamide], 17.7 µM. The same measure, in the same setting: the value for `COc1ccc(NC(=O)N2CCCC(c3nc(-c4ccc(C(C)C)cc4)no3)C2)cc1` (configuration not stated) [3-[3-(4-Isopropyl-phenyl)-[1,2,4]oxadiazol-5-yl]-piperidine-1-carboxylic acid (4-methoxy-phenyl)-amide] was 14 µM. The same measure, in the same setting: the value for `CC(=O)c1sc(NC(=O)C2(F)C(F)(F)C(F)(F)C(F)(F)C(F)(F)C2(F)F)nc1C` [MLS000040071] was 15.6 µM; that for `N#CC(C#N)=c1ccc2c(c1)NC1(CCCCC1)N=2` [2-spiro[3H-benzimidazole-2,1'-cyclohexane]-5-ylidenepropanedinitrile] was 10.1 µM; that for `N#C/C(=C\c1ccc(O)c(O)c1)C(=O)NCCCc1ccccc1` [MLS000069704] was 13.5 µM.

In general, IC50 refers to the midpoint of a concentration-inhibition curve. Low values mean greater potency, high ones weaker potency.

For the origin of these results see BindingDB's records for doi:10.7270/Q2319T8T (The Scripps Research Institute Molecular Screening Center, 2007).
